In one experiment the test system is Nitrosospira multiformis. In words: Nitrification inhibition assay with Nitrosospira multiformis (nitrite level after 24 h). Type of experiment: cell-based. The conditions noted are these: for IC50 / activity at 100 µM / activity at 50 µM: Nitrosospira multiformis; for activity at 100 µM / activity at 50 µM: 24 h, read-out: Nitrification at tested concentration (0 = maximum activity); for activity at 50 µM: tested concentration 50 μM. As for the experimental part: (§1) The compounds of formula (I) and (II) and (III)/(IV) were tested for their nitrification inhibition effect in two screens, using assays with the nitrifying bacteria N. europaea and N. multiformis. In practice, ammonium and candidate nitrification inhibitors (at 100 μM) were added to a dense bacterial culture in multiwell culture plates and after 24 h of incubation, the nitrite level was measured. To normalize for differences between batches of cultures and multiwell culture plates, for each well a relative nitrification was calculated that was normalized towards both the negative and positive controls (see “Material and Methods” below for full details).
(§2) Nitrite (NO2−) was measured using the Griess reagent (Product number: G4410, Griess reagent (modified), Sigma-Aldrich). Equal volumes of the sample or a diluted sample and the Griess reagent were mixed a transparent flat bottom multi-well plate and incubated in the dark at room temperature for 10 minutes. Absorbance values at 540 nm were measured spectrophotometrically (EnVision, Perkin Elmer®) and used to calculate the [NO2−] by use of a standard curve.
Cultures were first 5 times overconcentrated in fresh 181-medium by centrifugation (4000 rpm, 15 min, 5° C.) in 50 mL centrifuge tubes (Cat. No. 430829, CentriStar™ Conical Centrifuge Tubes, Corning®). Per batch, all the cultures were pooled in one sterile Schott bottle and subsequently dispensed in 384-well plates (Cat. No. 781086, CELLSTAR® plate, Greiner BioOne; 50 μl/well) by use of a dispenser (Multidrop™ Combi Reagent Dispenser, Thermo Scientific™) that was first flushed with 181-medium. 0.5 μl of 99.99% DMSO (negative control—final concentration […] was added to the outer two columns on the left side of the plate and 0.5 μl of 10 mM DMP (3,4-dimethylpyrazole, positive control—final concentration 100 μM) was added to the outer two columns on the right side manually. Finally, 0.5 μl of candidate nitrification inhibitors (5 mM stock solutions in 99.99% DMSO—final concentration 50 μM) were added to the central wells using a pin tool on a Tecan robot (Freedom EVO®, Tecan). In between additions, the pins were washed in sequence with 99.5% DMSO, MilliQ water and 100% ethanol and air-dried. All plates were separately wrapped in Parafilm. Stacks of 4 plates were put on top of a 96-well plate filled with 100 μl MilliQ per well, covered with aluminum foil and shaken (±150 rpm) at 30° C. 24 h later, NO2− production was assessed. For this, the samples were first 100 times diluted by pipetting 3 μl of samples into 300 μl fresh growth medium in intermediate plates (Cat. No. 353077, Falcon® 96-well Clear Round Bottom Microplate, Corning®) to then mix 15 μl of the diluted samples with 15 μl Griess reagent in the wells of a transparent, flat bottom 384-well plate (Cat. No. X^7001, Low Profile Microplate, Molecular Devices) that was measured spectrophotometrically at 540 nm (EnVision, Perkin Elmer®).
(§3) To assess the efficacy of the compounds (in terms of nitrification inhibition) and to enable comparison between plates and batches of cultures, we calculated the relative nitrification. More in detail, all nitrite results were normalized towards both a negative control, containing no compound, and a positive control, containing the benchmark (100 μM DMP), using Equation 1. This normalization was done per multi-well plate and each plate contained 32 positive and 32 negative controls.
IC50 values, that is the concentration that inhibits 50% of the nitrification, were calculated after fitting a logistic curve to 8-point dose response data, using doses between 2 and 100 μM with 1.75 fold steps. If a concentration of 2 μM already inhibited nitrification, the IC50 value could not be calculated. In that case, IC50 values represent the dose that gives inhibition closest to 50%.
The compounds of formula (I) and (II) were tested for their nitrification inhibition effect in two screens, using assays with the nitrifying bacteria N. europaea and N. multiformis. […]

A further experiment has as its system Nitrosomonas europaea. Nature of the experiment: Nitrification inhibition assay with Nitrosomonas europaea (nitrite level after 24 h). Type of experiment: cell-based. Particulars: for IC50 / activity at 100 µM / activity at 50 µM: Nitrosomonas europaea; for activity at 100 µM / activity at 50 µM: 24 h, read-out: Nitrification (%) at tested concentration (0 = maximum activity); for activity at 50 µM: tested concentration 50 μM. The protocol: as §1, §2
To prepare a high-throughput nitrification inhibition assay using N. europaea, late-log phase cultures were subcultivated two days before the assay. Just before the assay, the cultures were 5 times overconcentrated with fresh growth medium after centrifugation (4000 rpm, 15 min, 5° C.) in 50 mL centrifuge tubes (Cat. No. 430829, CentriStar™ Conical Centrifuge Tubes, Corning®). Per batch, all the cultures were pooled in one sterile Schott bottle and subsequently dispensed into 384-well plates (Cat. No. 781086, CELL-STAR® plate, Greiner Bio-One; 50 μl/well) by use of a dispenser (Multidrop™ Combi Reagent Dispenser, Thermo Scientific™) that was first flushed with growth medium. Specifically for the high-throughput screen for new nitrification inhibitors, 0.5 μl of 99.99% DMSO (negative control—final concentration 1%) was added to the outer two columns on the left side of the plate and 0.5 μl of 10 mM DMP (3,4-dimethylpyrazole, positive control—final concentration 100 μM) was added to the outer two columns on the right side manually. Finally, 0.5 μl of candidate nitrification inhibitors (5 mM stock solutions in 99.99% DMSO—final concentration 50 μM) were added to the central wells using a pin tool on a Tecan robot (Freedom EVO®, Tecan). In between additions, the pins were washed in sequence with 99.5% DMSO, MilliQ water and 100% ethanol and air-dried. All plates were separately wrapped in Parafilm. Stacks of 4 plates were put on top of a 96-well plate filled with 100 μl MilliQ per well, covered with aluminum foil and shaken at 150 rpm at 28° C. 24 h later, NO2− production was assessed. For this, the samples were first 200 times diluted by pipetting 1.5 μl of samples into 300 μl of fresh growth medium in intermediate plates (Cat. No. 353077, Falcon® 96-well Clear Round Bottom Microplate, Corning®), to then mix 15 μl of the diluted samples with 15 μl Griess reagent in the wells of a transparent, flat bottom 384-well plate (Cat. No. X^7001, Low Profile Microplate, Molecular Devices) that was measured spectrophotometrically at 540 nm (EnVision, Perkin Elmer®).
as §3
IC50 values, that is the concentration that inhibits 50% of the nitrification, were calculated after fitting a logistic curve to 8-point dose response data, using doses between 2 and 100 μM with 1.75 fold steps. […]

Where [1] appears, read: 8-point dose response, 2 to 100 μM, read-out: IC50.
Setting [2] is: tested concentration 100 μM, normalized to DMSO (100%) and 100 μM DMP (0%).
[3] abbreviates: normalized to DMSO (100%) and 100 μM DMP (0%).

The structures appear in SMILES notation. Where two headings read alike, the source gives them in different places. Some results are limits rather than exact numbers.

By IC50 is commonly meant the midpoint of a concentration-inhibition curve.

As for `CCN(CN1CCSC1=S)C1CC1` [Example 2], the IC50 in the experiment on Nitrosospira multiformis (setting [1]) and in the experiment with Nitrosomonas europaea (setting [1]) was below 2 µM in each case. For the same compound, the activity at 100 µM in the experiment on Nitrosospira multiformis (setting [2]) and with Nitrosomonas europaea (setting [2]) was 0% each time.
Consider `CC1CSC(=S)N1` (stereo not shown) [Example 3], for which the IC50 with Nitrosospira multiformis (setting [1]) was below 2 µM; in the experiment on Nitrosomonas europaea (setting [1]) it was below 3.5 µM. In addition, the activity at 100 µM in the experiment on Nitrosospira multiformis (setting [2]) and in the experiment with Nitrosomonas europaea (setting [2]) was 0% in each case.
With `CC1CNC(=S)S1` (stereo not shown) [Example 4], in the experiment with Nitrosospira multiformis, the 50% inhibitory concentration (IC50) was below 2 µM and the activity at 100 µM came out at 0%. In addition, in the experiment on Nitrosomonas europaea, the IC50 is below 2 µM and the activity at 100 µM worked out at 0%.
Turning to `O=C1NCCS1` [Example 8], the half-maximal inhibitory concentration (IC50) in the experiment on Nitrosospira multiformis (setting [1]) and in the experiment on Nitrosomonas europaea (setting [1]) was below 100 µM each time. Moreover, the activity at 100 µM amounted to 31% in the experiment on Nitrosospira multiformis (setting [2]) and 47% in the experiment with Nitrosomonas europaea (setting [2]).
As for `O=C(CSC1=NCCS1)NCc1cc(Br)cs1` [Example 11], the IC50 in the experiment with Nitrosospira multiformis (setting [1]) was below 20 µM. Also, the activity at 100 µM in the experiment with Nitrosospira multiformis (setting [2]) amounted to 0%.
On to `COc1cccc(-c2nc(CSC3=NCCS3)cs2)c1OC` [Example 12], for which the values for the IC50 in the experiment on Nitrosospira multiformis (setting [1]) and in the experiment with Nitrosomonas europaea (setting [1]) were below 20 µM and below 100 µM, respectively. Moreover, the figures for the activity at 100 µM in the experiment on Nitrosospira multiformis (setting [2]) and with Nitrosomonas europaea (setting [2]) were 11% and 0%, respectively.
For the compound `CCn1c(CSC2=NCCS2)nc2cc(F)ccc21` [Example 13], the activity at 50 µM in the experiment on Nitrosospira multiformis (setting [3]) came out at 0%; in the experiment on Nitrosomonas europaea (setting [3]), 73%.
As to `CC1CSC(SCc2cc(=O)n3ccsc3n2)=N1` (stereo not shown) [Example 14], the values for the IC50 with Nitrosospira multiformis (setting [1]) and with Nitrosomonas europaea (setting [1]) were below 20 µM and below 57 µM, respectively. Further, the activity at 100 µM in the experiment with Nitrosospira multiformis (setting [2]) and with Nitrosomonas europaea (setting [2]) was 0% throughout.
As to `COc1cc(C(=O)CSC2=NCCS2)cc(OC)c1OC` [Example 15], the activity at 50 µM in the experiment on Nitrosospira multiformis (setting [3]) was 13%; in the experiment with Nitrosomonas europaea (setting [3]) it was 78%.
The matching figures for `Cc1cccc(CSC2=NCCS2)c1` [Example 17]: 36% and 100%.
The matching figures for `COc1ccccc1Nc1nc(N)nc(CSC2=NCCS2)n1` [Example 20]: 42% and 79%.
Turning to `Cc1csc(=S)[nH]1` [Example 26, 4-methyl-1,3-thiazole-2-thiol], the “Average nitrification [%] in Nitrosospira multiformis” value is 51% in the experiment on Nitrosospira multiformis (2 μM); 27% with Nitrosospira multiformis (3.5 μM); 6% in the experiment on Nitrosospira multiformis (6 μM); 2% with Nitrosospira multiformis (11 μM); 0% in the experiment with Nitrosospira multiformis (19 μM); 0% in the experiment with Nitrosospira multiformis (33 μM). Also, the “Average nitrification [%] in Nitrosospira multiformis” value with Nitrosospira multiformis (57 μM) and in the experiment on Nitrosospira multiformis (100 μM) was 0% throughout. The IC50 was 2.1 µM in the experiment with Nitrosospira multiformis (setting [1]) and 38 µM in the experiment on Nitrosomonas europaea (setting [1]). The activity at 100 µM in the experiment with Nitrosospira multiformis (setting [2]) and in the experiment on Nitrosomonas europaea (setting [2]) was 0% throughout. The “Average nitrification [%] in Nitrosomonas europaea” value in the experiment with Nitrosomonas europaea (2 μM) was 91%; with Nitrosomonas europaea (3.5 μM), 84%; with Nitrosomonas europaea (6 μM), 80%; in the experiment with Nitrosomonas europaea (11 μM) it was 83%; in the experiment with Nitrosomonas europaea (19 μM), 78%; with Nitrosomonas europaea (33 μM) it was 71%. Besides, the “Average nitrification [%] in Nitrosomonas europaea” value in the experiment with Nitrosomonas europaea (57 μM) came to 50%; with Nitrosomonas europaea (100 μM) it was 0%.
As for `CCSc1nc(CC(=O)O)cs1` [Example 27], the IC50 with Nitrosospira multiformis (setting [1]) and in the experiment with Nitrosomonas europaea (setting [1]) was above 100 µM throughout. Besides, the activity at 100 µM in the experiment on Nitrosospira multiformis (setting [2]) stood at 77%; in the experiment on Nitrosomonas europaea (setting [2]), 62%.
Take `S=c1[nH]cc(Cc2ccccc2)s1` [Example 28]: the values for the IC50 in the experiment on Nitrosospira multiformis (setting [1]) and with Nitrosomonas europaea (setting [1]) were 12 µM and above 100 µM, respectively. Further, the activity at 100 µM is 0% in the experiment on Nitrosospira multiformis (setting [2]) and 65% in the experiment on Nitrosomonas europaea (setting [2]).
The matching figures for `CSc1nc(N)c(C#N)s1` [Example 29]: above 100 µM, 28 µM, 61% and 0%.
The matching figures for `S=c1[nH]c(-c2ccccc2)cs1` [Example 30]: 36 µM, 42 µM, 0% and 21%.
The matching figures for `Oc1csc(=S)[nH]1` [Example 31]: 16 µM, 14 µM, 11% and 12%.
`CSc1nc(Br)cs1` [Example 32]: the IC50 with Nitrosospira multiformis (setting [1]) was above 100 µM; in the experiment on Nitrosomonas europaea (setting [1]), below 100 µM. Also, the activity at 100 µM was determined as 75% in the experiment with Nitrosospira multiformis (setting [2]) and 46% in the experiment on Nitrosomonas europaea (setting [2]).
The matching figures for `CSc1ncc(Br)s1` [Example 33]: above 100 µM, above 100 µM, 64% and 68%.
The matching figures for `S=c1[nH]c(C2CC2)cs1` [Example 34]: 11 µM, 52 µM, 0% and 0%.
The matching figures for `Cc1[nH]c(=S)sc1C` [Example 35]: 3 µM, 43 µM, 0% and 12%.
For `S=c1[nH]c(C2CCCCC2)cs1` [Example 36], the IC50 is 49 µM in the experiment on Nitrosospira multiformis (setting [1]) and 16 µM in the experiment on Nitrosomonas europaea (setting [1]). In addition, the activity at 100 µM in the experiment on Nitrosospira multiformis (setting [2]) worked out at 15%; with Nitrosomonas europaea (setting [2]) it was 0%.

These data come from patent publication US20230416168A1 (EUROCHEM ANTWERPEN, priority 2020, published 2023).
